Each structure is given as a SMILES string.

Sequence of p97 ATPase WT (P55072 whole entry): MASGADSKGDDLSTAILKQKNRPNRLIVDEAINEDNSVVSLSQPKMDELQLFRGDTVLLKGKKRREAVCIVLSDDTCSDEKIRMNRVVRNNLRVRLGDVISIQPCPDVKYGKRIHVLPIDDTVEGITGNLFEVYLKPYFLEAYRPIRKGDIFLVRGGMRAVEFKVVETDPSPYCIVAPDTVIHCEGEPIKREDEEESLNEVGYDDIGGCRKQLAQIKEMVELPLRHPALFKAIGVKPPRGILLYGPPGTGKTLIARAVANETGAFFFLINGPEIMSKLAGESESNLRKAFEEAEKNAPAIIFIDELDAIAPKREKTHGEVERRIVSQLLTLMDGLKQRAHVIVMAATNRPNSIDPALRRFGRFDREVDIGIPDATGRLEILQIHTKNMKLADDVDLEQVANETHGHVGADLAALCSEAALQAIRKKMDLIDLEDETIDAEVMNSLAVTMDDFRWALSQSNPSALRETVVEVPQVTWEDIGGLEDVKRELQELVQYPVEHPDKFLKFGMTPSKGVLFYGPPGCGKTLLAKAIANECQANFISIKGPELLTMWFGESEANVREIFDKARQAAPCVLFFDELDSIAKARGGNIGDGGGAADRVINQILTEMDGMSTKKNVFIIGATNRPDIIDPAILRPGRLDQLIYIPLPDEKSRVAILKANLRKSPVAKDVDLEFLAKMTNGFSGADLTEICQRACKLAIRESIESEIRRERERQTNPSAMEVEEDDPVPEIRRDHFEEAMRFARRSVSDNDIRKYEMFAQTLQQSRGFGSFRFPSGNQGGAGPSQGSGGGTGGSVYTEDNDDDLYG

The test deals with p97 ATPase WT (Homo sapiens (Human), UniProt P55072). Kind of test: p97 ADP-Glo assay. The test is classed as biochemical. As to conditions: Table 3; read-out: ADPGlo IC50. An excerpt:
ADP-Glo™ (Promega Corp.) is a bioluminescent, homogeneous assay that measures ADP formed from a biochemical reactions. Because of its high sensitivity, the assay is suitable for monitoring enzyme activities at very early substrate conversions requiring very low amount of enzymes.
The ADP-Glo assay can be conducted as described in Chou, T.-F.; Bulfer, S. L.; Weihl, C.
As for `Cn1ncnc1CCNC1CCN(c2cccc(-c3cc4cc(F)ccc4[nH]3)c2)CC1`, the IC50 was found to be 1300 nM. As to `CNC(=O)c1ccc2[nH]c(-c3cccc(N4CCC(NCCN5CCN(C(C)C)CC5)CC4)c3)cc2c1`, the half-maximal inhibitory concentration (IC50) is 430 nM. In the case of `Cc1ccc(N2CCC(NC3CCN(C)CC3)CC2)cc1-c1cc2ccccc2[nH]1`, the half-maximal inhibitory concentration (IC50) amounted to 350 nM.

Turning to `Cc1c(-c2cc3ccccc3[nH]2)cccc1N1CCC(NCCN2CCN(C(C)C)CC2)CC1`, the concentration for half-maximal inhibition (IC50) was 14000 nM. In the case of `CCCCNC1CCN(c2cccc(-c3cc4ccccc4[nH]3)c2)CC1`, the half-maximal inhibitory concentration (IC50) worked out at 1700 nM. As for `CC(C)N1CCN(CCNC2CCN(c3cccc(-c4cc5ccccc5o4)c3)CC2)CC1`, the IC50 amounted to 20000 nM. Consider `c1cncc(CNC2CCN(c3cccc(-c4cc5ccccc5[nH]4)c3)CC2)c1`, for which the IC50 was 740 nM. As for `CN(C)CCNC1CCN(c2cccc(-c3cc4cc(F)ccc4[nH]3)c2)CC1`, the figure is 710 nM; as for `CCC(C)N1CCN(CCCNC2CCN(c3cccc(-c4cc5ccccc5[nH]4)c3)CC2)CC1` (stereo not shown), 640 nM. Regarding `CC(C)N1CCC(NC2CCN(c3nnc(-c4cc5cc(F)ccc5[nH]4)o3)CC2)CC1`, the concentration for half-maximal inhibition (IC50) is 15800 nM.

As for `CN1CCN(CCNC2CCN(c3cccc(-c4cc5ccccc5[nH]4)c3)CC2)CC1`, the IC50 is 380 nM.

As to `CC(C)N1CCN(C2(CNC3CCN(c4cccc(-c5cc6cc(F)ccc6[nH]5)c4)CC3)CCC2)CC1`, the IC50 was 130 nM. `Cc1ccc(N2CCC(NC3CCN(C(C)C)CC3)CC2)cc1-c1cc2cc(C#N)ccc2[nH]1`: the IC50 stood at 110 nM. With `CC(C)N1CCN(CC=C2CCN(c3cccc(-c4cc5ccccc5[nH]4)c3)CC2)CC1` the figure was 5800 nM; with `O=C(CCNC1CCN(c2cccc(-c3cc4cc(F)ccc4[nH]3)c2)CC1)N1CCCCC1`, 1400 nM. As for `Cn1ncnc1CCNC1CCN(c2cccc(-c3cc4cc(F)c(F)cc4[nH]3)c2)CC1`, the figure is 2200 nM; as for `CN1CCC(NC2CCN(c3cncc(-c4cc5ccccc5[nH]4)c3)CC2)CC1`, 25000 nM; as for `CN1CCN(CCCNC2CCN(c3cccc(-c4cc5ccccc5[nH]4)c3)CC2)CC1`, 210 nM. With `CC(C)N1CCN(C2(CNC(=O)C3CCN(c4cccc(-c5cc6cc(F)ccc6[nH]5)c4)CC3)CCC2)CC1`, the IC50 turned out to be 3800 nM.

As for `Fc1ccc2[nH]c(-c3cccc(N4CCC(NCc5cccnc5)CC4)c3)cc2c1`, the IC50 worked out at 340 nM. Take `O=S1(=O)CCN(CCNC2CCN(c3cccc(-c4cc5ccccc5[nH]4)c3)CC2)CC1`: the IC50 came out at 700 nM.

For `CC(C)(C)OC(=O)N1CCN(CCNC2CCN(c3cccc(-c4cc5ccccc5[nH]4)c3)CC2)CC1`, the concentration for half-maximal inhibition (IC50) was 2400 nM. Take `CC(C)N1CCN(CCNC2CCN(c3cccc(-c4cc5cc(N=[N+]=[N-])ccc5[nH]4)c3)CC2)CC1`: the IC50 was 200 nM. With `CC(C)N1CCN(C2(CNC3CCN(c4cccc(-c5cc6cc(C#N)ccc6[nH]5)c4)CC3)COC2)CC1` the figure was 110 nM; with `CC(C)N1CCN(CCNC2CCN(c3cccc(-c4nc5ccccc5n4-c4ccc(C(c5ccccc5)c5ccccc5)cc4)c3)CC2)CC1`, 7100 nM. In the case of `CCN1CCN(CCNC2CCN(c3cccc(-c4cc5ccccc5[nH]4)c3)CC2)CC1`, the IC50 worked out at 190 nM.

Turning to `CC(C)N1CCN(C(=O)CCNC2CCN(c3cccc(-c4cc5cc(F)ccc5[nH]4)c3)CC2)CC1`, the half-maximal inhibitory concentration (IC50) turned out to be 120 nM. Regarding `Cn1ncnc1CCNC1CCN(c2cccc(-c3cc4cc(C#N)ccc4[nH]3)c2)CC1`, the concentration for half-maximal inhibition (IC50) was 890 nM. Consider `CC(C)N1CCN(CCNC2CCN(c3ccc4c(c3)-c3[nH]c5ccccc5c3CC4)CC2)CC1`, for which the half-inhibitory concentration (IC50) came to 370 nM. For the molecule `CC(C)N1CCN(CCNC2CCN(c3cccc(-c4[nH]c5ccc(F)cc5c4-c4c(-c5cccc(N6CCC(NCCN7CCN(C(C)C)CC7)CC6)c5)[nH]c5ccc(F)cc45)c3)CC2)CC1`, the IC50 was 9300 nM. For `CC(C)N1CCN(CCNC(=O)C=C2CCN(c3cccc(-c4cc5ccccc5[nH]4)c3)CC2)CC1`, the concentration for half-maximal inhibition (IC50) worked out at 7580 nM. With `NC1CCN(c2cccc(-c3cc4ccccc4[nH]3)c2)CC1`, the concentration for half-maximal inhibition (IC50) was 1800 nM.

As to `CC(C)N1CCN(C2CCN(c3cccc(-c4cc5cc(F)ccc5[nH]4)c3)CC2)CC1`, the IC50 was determined as 4300 nM. As for `CC(C)N1CCC(NC(=O)C2CCN(c3cccc(-c4cc5cc(F)ccc5[nH]4)c3)CC2)CC1`, the 50% inhibitory concentration (IC50) came to 3900 nM. On to `COC(=O)c1ccc2[nH]c(-c3cccc(N4CCC(NCCN5CCN(C(C)C)CC5)CC4)c3)cc2c1`, for which the half-inhibitory concentration (IC50) came to 150 nM. With `CNC(=O)CCNC1CCN(c2cccc(-c3cc4cc(F)ccc4[nH]3)c2)CC1` the figure was 630 nM; with `CC(C)N1CCN(CC(=O)NC2CCN(c3cccc(-c4cc5ccccc5[nH]4)c3)CC2)CC1`, 7600 nM. As for `C[C@@H]1CN(CCNC2CCN(c3cccc(-c4cc5ccccc5[nH]4)c3)CC2)C[C@H](C)N1C`, the figure is 140 nM; as for `Cc1ccc(N2CCC(NCCN3CCN(C(C)C)CC3)CC2)cc1-c1cc2ccccc2[nH]1`, 140 nM. With `c1cc(-c2cc3ccccc3[nH]2)cc(N2CCC(NCCN3CCCNCC3)CC2)c1`, the concentration for half-maximal inhibition (IC50) stood at 320 nM. As for `CN1CCC(NC2CCN(c3cccc(-c4cc5cc(F)ccc5[nH]4)c3)CC2)CC1`, the figure is 180 nM.

With `CC(C)N1CCN(CCNC2CCN(c3cccc(-c4cc5c(F)cccc5[nH]4)c3)CC2)CC1`, the half-inhibitory concentration (IC50) is 1300 nM. Consider `Cn1ncnc1CCNC1CCN(c2cccc(-c3cc4ccccc4[nH]3)c2)CC1`, for which the IC50 was 810 nM. As for `CC(C)N1CCN(CCNC2CCN(c3cccc(-c4cc5cc(F)cnc5[nH]4)c3)CC2)CC1`, the IC50 amounted to 5300 nM. In the case of `Cc1ccc(N2CCC(NCCc3ncnn3C)CC2)cc1-c1cc2ccccc2[nH]1`, the half-maximal inhibitory concentration (IC50) amounted to 4500 nM. For the molecule `CC(C)N1CCC(NC2CCN(c3cccc(-c4cc5cc(S(N)(=O)=O)ccc5[nH]4)c3)CC2)CC1`, the half-maximal inhibitory concentration (IC50) turned out to be 8600 nM. With `CC(C)N1CCN(CCCNC2CCN(c3cccc(-c4cc5ccccc5[nH]4)c3)CC2)CC1` the figure was 370 nM. As to `CC(C)N1CCN(CCNC2CCN(c3cccc(-c4cc5cnccc5[nH]4)c3)CC2)CC1`, the IC50 came to 3800 nM. As to `CON(C)C(=O)c1ccc2[nH]c(-c3cccc(N4CCC(NCCN5CCN(C(C)C)CC5)CC4)c3)cc2c1`, the 50% inhibitory concentration (IC50) was 16000 nM.

Consider `CC(C)N1CCN(CCNC2CCN(c3cccc(-c4cc5ccccc5s4)c3)CC2)CC1`, for which the IC50 is 24000 nM. In the case of `COCCN1CCN(CCNC2CCN(c3cccc(-c4cc5ccccc5[nH]4)c3)CC2)CC1`, the IC50 was determined as 300 nM. With `CC(C)N1CCN(C2(CNC3CCN(c4cccc(-c5cc6cc(C#N)ccc6[nH]5)c4)CC3)CCC2)CC1` the figure was 15 nM; with `CC(C)N1CCN(CCNC2CCN(c3ccc(F)c(-c4cc5ccccc5[nH]4)c3)CC2)CC1`, 410 nM. Turning to `CN1CCN(C2(CNC3CCN(c4cccc(-c5cc6ccccc6[nH]5)c4)CC3)CCC2)CC1`, the IC50 was 140 nM. With `CN1CCC(NC2CCN(c3cccc(-c4cc5cc(C#N)ccc5[nH]4)c3)CC2)CC1` the figure was 130 nM; with `N#Cc1ccc2[nH]c(-c3cccc(N4CCC(NCc5cccc(N=[N+]=[N-])c5)CC4)c3)cc2c1`, 160 nM.

With `CN1CCN(C(C)(C)CNC2CCN(c3cccc(-c4cc5ccccc5[nH]4)c3)CC2)CC1`, the half-maximal inhibitory concentration (IC50) worked out at 450 nM. On to `CCOC(=O)Nc1cccc(N2CCC(NCCN3CCN(C(C)C)CC3)CC2)c1`, for which the IC50 is 1700 nM.

For the origin of these results see patent publication US11247985B2, “Phenyl indole allosteric inhibitors of P97 ATPase” (University of Pittsburgh—Of the Commonwealth System of …, priority 2015, dated 2022).
